Experimental data: patent US11072581B2, “N-acyl-arylsulfonamide derivatives as aminoacyl-tRNA synthetase inhibitors” (Oxford Drug Design Limited, priority 2015, dated 2021)
Where a name gives a salt, the structure may show the parent alone.

Legend:
[1] = target: T1, EcoIRS (isoleucyl-tRNA synthetase from Escherichia coli) (Escherichia coli, UniProt P00956); experiment: aaRS aminoacylation assay (ATP consumption), EcoIRS; type: biochemical; details: i.a. = inactive at a concentration below 50 uM
T1 construct: made in house; host or cells: Escherichia coli M15
T1 sequence (P00956 whole entry): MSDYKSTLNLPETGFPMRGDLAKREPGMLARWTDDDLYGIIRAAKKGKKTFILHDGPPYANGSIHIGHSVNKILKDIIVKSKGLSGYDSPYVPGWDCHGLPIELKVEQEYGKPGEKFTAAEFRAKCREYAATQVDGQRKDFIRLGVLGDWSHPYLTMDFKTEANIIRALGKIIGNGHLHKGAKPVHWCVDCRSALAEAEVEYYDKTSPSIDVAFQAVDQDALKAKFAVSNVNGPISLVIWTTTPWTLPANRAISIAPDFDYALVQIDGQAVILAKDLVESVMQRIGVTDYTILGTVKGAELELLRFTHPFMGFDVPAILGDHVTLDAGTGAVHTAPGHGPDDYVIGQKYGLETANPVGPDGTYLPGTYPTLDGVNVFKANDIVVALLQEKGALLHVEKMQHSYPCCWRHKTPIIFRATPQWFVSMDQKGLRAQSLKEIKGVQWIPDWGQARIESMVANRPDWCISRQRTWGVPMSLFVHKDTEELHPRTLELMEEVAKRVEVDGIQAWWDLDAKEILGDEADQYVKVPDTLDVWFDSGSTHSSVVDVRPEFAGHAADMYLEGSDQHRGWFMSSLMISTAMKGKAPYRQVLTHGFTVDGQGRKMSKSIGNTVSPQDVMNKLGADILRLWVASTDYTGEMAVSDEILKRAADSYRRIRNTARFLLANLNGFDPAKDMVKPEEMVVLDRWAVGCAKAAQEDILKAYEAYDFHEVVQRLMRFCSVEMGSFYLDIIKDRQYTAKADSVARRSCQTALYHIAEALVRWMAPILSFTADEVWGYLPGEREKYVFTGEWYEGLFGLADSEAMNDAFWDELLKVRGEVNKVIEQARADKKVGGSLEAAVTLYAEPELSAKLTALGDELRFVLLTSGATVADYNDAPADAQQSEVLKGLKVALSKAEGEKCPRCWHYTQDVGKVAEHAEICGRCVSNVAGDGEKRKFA
Experimental: (§1) The compounds have been tested for antibacterial activity in vitro as aminoacyl-tRNA synthetases (aaRS) inhibitors following the following process.
(§2) Leucyl-, valyl- and isoleucyl-tRNA synthetases (LRS, VRS and IRS, respectively) from Escherichia coli (Eco) and Staphylococcus aureus (Sau).
(§3) Escherichia coli M15 cells transformed with plasmid pQE-60, or pQE-70, containing the open-reading frame sequence of one targeted aaRS were induced with 1 mM IPTG (Isopropyl β-D-1-thiogalactopyranoside) for 3 h at 37° C. Bacterial cells were harvested and lysed with 20 mM NaH2PO4 (pH 8.0), 200 mM NaCl, 10 mM imidazole and protease inhibitor cocktail (Roche). Pathogenic aaRS was purified by nickel affinity standard chromatography. Protein concentration was determined by spectrophotometry.
(§4) tRNA^Leu, tRNA^Val and tRNA^Ile from E. coli and S. aureus were transcribed in vitro for 4 h at 37° C. using T7 RNA polymerase. Transcription reaction contained 40 mM Tris-HCl (pH 8.0), 22 mM MgCl2, 1 mM spermidine, 5 mM DTT, 0.01% Triton X-100, 4 mM GTP, 4 mM ATP, 4 mM UTP, 4 mM CTP, 16 mM GMP, […] T7 RNA polymerase and 150 μg BstNI digested plasmid. Once finished, the reaction was applied on a 6% polyacrylamide-8 M urea denaturing gel to purify the transcribed tRNA and discard any impurities. Purified tRNA was quantified with Nanodrop 2000 (Thermo Scientific).
(§5) The aminoacylation reaction catalyzed by aminoacyl-tRNA synthetases (aaRS) takes place in two steps. In the first step, aaRS activates its cognate amino acid with ATP; and in the second step the activated amino acid is loaded to its corresponding tRNA. This reaction can be summarized as follows: ARS+aa+ATP=ARS-aa-AMP+PPi ARS-aa-AMP+tRNA=aa-tRNA+AMP+ARS [2] (ARS, Aminoacyl-tRNA synthetase; aa, amino acid; ARS-aa-AMP, enzyme-bound to aminoacyl-adenylate; aa-tRNA, aminoacyl-tRNA).
(§6) The activity of the pathogenic aaRSs was monitored by measuring the ATP consumption rate, since this consumption is directly proportional to the activity of the aaRS. If the tested compound, at a single point concentration of 50 μM, is inhibiting the aminoacylation reaction, there is a decrease in the ATP consumption, compared to the control reaction without compound, allowing the calculation of an inhibition ratio.
(§7) When the inhibition ratio for a given compound was above 80%, IC50 determination was performed with the same enzymatic assay (using the commercial kit Kinase RR from BioThema AB, Sweden) in the presence of serial dilutions of inhibitor. Known inhibitors of LRS, VRS or IRS were used as a positive control of the assay. The IC50 was calculated based on nonlinear regression analysis.

[2] = target: T2, EcoVRS (valyl-tRNA synthetase from Escherichia coli) (Escherichia coli, UniProt P07118); experiment: aaRS aminoacylation assay (ATP consumption), EcoVRS; type: biochemical; details: i.a. = inactive at a concentration below 50 uM
T2 construct: made in house; host or cells: Escherichia coli M15
T2 sequence (P07118 whole entry): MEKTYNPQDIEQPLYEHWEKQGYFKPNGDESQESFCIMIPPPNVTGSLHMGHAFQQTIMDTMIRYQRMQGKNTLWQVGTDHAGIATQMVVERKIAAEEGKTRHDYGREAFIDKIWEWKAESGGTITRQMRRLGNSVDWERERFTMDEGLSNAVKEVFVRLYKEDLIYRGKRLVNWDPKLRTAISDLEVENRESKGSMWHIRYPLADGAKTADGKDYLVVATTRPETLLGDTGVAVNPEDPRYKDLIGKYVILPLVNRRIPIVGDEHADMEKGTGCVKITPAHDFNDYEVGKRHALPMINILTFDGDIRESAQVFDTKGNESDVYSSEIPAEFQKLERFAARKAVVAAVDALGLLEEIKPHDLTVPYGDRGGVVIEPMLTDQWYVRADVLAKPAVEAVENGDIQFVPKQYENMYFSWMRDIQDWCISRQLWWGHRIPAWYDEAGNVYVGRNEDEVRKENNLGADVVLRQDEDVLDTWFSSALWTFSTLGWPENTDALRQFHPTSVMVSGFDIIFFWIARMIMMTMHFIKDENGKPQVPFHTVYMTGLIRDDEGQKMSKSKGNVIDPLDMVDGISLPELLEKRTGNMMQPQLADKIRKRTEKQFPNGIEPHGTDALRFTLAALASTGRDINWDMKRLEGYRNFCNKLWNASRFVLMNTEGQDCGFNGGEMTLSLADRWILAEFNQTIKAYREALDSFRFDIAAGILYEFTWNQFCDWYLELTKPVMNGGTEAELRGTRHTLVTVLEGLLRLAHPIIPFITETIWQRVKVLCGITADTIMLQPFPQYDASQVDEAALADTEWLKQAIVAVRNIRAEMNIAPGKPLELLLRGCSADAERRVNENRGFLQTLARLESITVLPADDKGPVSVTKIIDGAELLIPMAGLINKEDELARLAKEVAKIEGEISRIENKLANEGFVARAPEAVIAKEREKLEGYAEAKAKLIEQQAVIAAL
Experimental: as §1, §2, §3, §4, §5, §6, §7

[3] = target: T3, SauLRS (leucyl-tRNA synthetase from Staphylococcus aureus) (Staphylococcus aureus, UniProt Q2FXH2); experiment: aaRS aminoacylation assay (ATP consumption), SauLRS; type: biochemical; details: i.a. = inactive at a concentration below 50 uM
T3 construct: made in house; host or cells: Escherichia coli M15
T3 sequence (Q2FXH2 1-805): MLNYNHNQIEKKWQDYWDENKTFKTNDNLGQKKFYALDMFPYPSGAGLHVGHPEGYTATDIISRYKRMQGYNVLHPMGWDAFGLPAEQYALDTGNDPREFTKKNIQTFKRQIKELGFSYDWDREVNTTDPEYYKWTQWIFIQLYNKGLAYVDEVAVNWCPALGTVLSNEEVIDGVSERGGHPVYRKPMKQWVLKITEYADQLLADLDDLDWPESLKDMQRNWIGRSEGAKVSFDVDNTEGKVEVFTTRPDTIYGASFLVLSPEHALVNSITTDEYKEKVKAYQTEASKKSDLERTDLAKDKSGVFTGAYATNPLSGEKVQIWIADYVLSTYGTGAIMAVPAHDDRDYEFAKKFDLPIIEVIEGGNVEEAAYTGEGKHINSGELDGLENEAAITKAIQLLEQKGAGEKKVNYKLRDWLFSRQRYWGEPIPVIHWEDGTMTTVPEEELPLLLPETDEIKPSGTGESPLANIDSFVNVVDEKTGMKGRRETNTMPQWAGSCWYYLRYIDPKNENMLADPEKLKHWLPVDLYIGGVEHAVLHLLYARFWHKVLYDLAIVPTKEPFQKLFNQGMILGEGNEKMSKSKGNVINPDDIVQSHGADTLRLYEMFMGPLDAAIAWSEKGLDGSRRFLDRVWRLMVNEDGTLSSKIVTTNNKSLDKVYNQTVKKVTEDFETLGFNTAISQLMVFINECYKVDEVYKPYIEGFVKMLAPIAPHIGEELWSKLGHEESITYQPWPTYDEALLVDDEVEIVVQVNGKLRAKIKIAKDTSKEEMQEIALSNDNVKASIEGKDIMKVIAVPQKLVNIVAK
Experimental: as §1, §2, §3, §4, §5, §6, §7

[4] = target: T4, SauVRS (valyl-tRNA synthetase from Staphylococcus aureus) (Staphylococcus aureus, UniProt Q2FXR8); experiment: aaRS aminoacylation assay (ATP consumption), SauVRS; type: biochemical; details: i.a. = inactive at a concentration below 50 uM
T4 construct: made in house; host or cells: Escherichia coli M15
T4 sequence (Q2FXR8 1-876): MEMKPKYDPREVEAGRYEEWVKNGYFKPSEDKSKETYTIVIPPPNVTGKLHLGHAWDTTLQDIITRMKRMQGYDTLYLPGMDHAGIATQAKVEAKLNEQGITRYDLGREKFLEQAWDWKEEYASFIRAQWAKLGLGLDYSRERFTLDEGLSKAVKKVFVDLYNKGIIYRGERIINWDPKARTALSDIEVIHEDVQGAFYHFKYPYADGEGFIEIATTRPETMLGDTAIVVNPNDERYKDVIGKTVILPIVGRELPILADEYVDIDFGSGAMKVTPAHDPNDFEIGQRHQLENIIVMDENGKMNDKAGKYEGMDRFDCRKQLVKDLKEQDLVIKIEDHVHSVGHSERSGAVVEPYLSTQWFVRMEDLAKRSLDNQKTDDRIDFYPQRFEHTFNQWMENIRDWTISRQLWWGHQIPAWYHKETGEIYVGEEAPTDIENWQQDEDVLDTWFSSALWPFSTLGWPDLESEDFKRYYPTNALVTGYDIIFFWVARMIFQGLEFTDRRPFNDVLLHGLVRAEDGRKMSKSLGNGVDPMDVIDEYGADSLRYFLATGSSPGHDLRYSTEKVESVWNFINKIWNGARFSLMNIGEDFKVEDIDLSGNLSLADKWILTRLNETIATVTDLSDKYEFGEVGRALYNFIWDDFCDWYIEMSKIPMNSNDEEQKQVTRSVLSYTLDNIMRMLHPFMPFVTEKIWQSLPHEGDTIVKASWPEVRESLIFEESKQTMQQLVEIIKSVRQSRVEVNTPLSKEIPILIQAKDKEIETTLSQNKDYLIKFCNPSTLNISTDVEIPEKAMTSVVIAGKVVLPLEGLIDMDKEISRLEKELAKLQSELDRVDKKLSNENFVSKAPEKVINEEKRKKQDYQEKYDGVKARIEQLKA
Experimental: as §1, §2, §3, §4, §5, §6, §7

[5] = target: T5, EcoLRS (leucyl-tRNA synthetase from Escherichia coli) (Escherichia coli, UniProt P07813); experiment: aaRS aminoacylation assay (ATP consumption), EcoLRS; type: biochemical; details: for % at single point concentration (inhibition ratio), EcoLRS: @50 μM compound
T5 construct: made in house; host or cells: Escherichia coli M15
T5 sequence (P07813 whole entry): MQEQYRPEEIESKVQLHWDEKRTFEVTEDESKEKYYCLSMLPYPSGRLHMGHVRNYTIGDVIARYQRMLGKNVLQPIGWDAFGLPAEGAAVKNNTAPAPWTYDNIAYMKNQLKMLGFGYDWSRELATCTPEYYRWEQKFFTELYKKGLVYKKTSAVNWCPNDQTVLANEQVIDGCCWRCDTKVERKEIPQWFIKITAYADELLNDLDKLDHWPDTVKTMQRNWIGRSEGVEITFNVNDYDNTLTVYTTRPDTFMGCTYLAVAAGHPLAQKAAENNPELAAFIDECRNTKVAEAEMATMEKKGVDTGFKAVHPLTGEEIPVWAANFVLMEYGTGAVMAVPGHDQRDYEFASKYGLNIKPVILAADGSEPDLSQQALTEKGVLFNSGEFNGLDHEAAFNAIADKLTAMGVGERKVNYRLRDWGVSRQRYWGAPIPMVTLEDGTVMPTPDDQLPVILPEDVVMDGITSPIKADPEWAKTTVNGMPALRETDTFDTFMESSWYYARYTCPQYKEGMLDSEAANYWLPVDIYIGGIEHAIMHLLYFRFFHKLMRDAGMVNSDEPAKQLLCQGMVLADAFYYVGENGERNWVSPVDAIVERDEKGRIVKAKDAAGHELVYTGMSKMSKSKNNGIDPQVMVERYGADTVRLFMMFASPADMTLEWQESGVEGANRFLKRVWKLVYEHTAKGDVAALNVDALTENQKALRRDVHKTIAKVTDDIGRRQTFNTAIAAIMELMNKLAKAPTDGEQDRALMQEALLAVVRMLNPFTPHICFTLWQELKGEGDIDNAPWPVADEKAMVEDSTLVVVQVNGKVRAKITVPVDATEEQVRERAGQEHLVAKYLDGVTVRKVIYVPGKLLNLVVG
Experimental: as §1, §2, §3, §4, §5, §6, §7

| Compound | melting point [°C] | also measured |
| --- | --- | --- |
| CC(C)C[C@H](N)C(=O)NS(=O)(=O)c1cccc2c(N(C)C)cccc12 (as salt: hydrochloride) [Compound 5.16, (S)-2-amino-N-((5-(dimethylamino)naphthalen-1-yl)sulfonyl)-4-methylpentanamide hydrochloride] | 178 to 180 | – |
| CC(C)C[C@H](N)C(=O)NS(=O)(=O)c1cccc2cc(C(N)=O)ncc12 (as salt: salt) [Compound 5.24, 8-(N-(L-Leucyl)sulfamoyl)isoquinoline-3-carboxamide] | 222.9 | – |
| CC(C)C[C@H](N)C(=O)NS(=O)(=O)c1ccc(Br)c2ccncc12 (as salt: trifluoroacetate) [Compound 5.22] | 137 to 139 | – |
| CC(C)C[C@H](N)C(=O)NS(=O)(=O)c1cccc2c1CNCC2 (as salt: trifluoroacetate) [Compound 5.26, (S)-2-amino-4-methyl-N-((1,2,3,4-tetrahydroisoquinolin-8-yl)sulfonyl) pentanamide trifluoroacetate] | 90 to 92 | – |
| CC(C)C[C@H](N)C(=O)NS(=O)(=O)c1ccc(F)cc1 [Compound 5.8] | 235 to 236 | – |
| COc1ccc(S(=O)(=O)NC(=O)[C@@H](N)CC(C)C)c2ccccc12 [Compound 5.18] | 253 to 255 | – |
| CC(C)C[C@H](N)C(=O)NS(=O)(=O)c1ccccn1 [Compound 5.20] | 203 to 205 | – |
| CC(C)C[C@H](N)C(=O)NS(=O)(=O)c1ccc(O)c2ccccc12 [Compound 5.23] | 250 to 252 | – |
| Cc1cc(-c2cccc(S(=O)(=O)NC(=O)[C@@H](N)C3CCCCC3)c2)nc(N)n1 [Compound 5.32] | – | IC50 EcoIRS [1]: i.a; IC50 EcoVRS [2]: i.a; IC50 SauLRS [3]: i.a; IC50 SauVRS [4]: i.a; IC50 [5]: 38 µM |
| CC(C)C[C@H](N)C(=O)NS(=O)(=O)c1cccc(-c2cc(OC(C)C)nc(N)n2)c1 [Compound 5.51] | – | % at single point concentration (inhibition ratio), EcoLRS [5]: 102%@50 μM |
| CC(C)C[C@H](N)C(=O)NS(=O)(=O)c1cccc(-c2cc(Oc3ccccc3)nc(N)n2)c1 [Compound 5.52] | – | % at single point concentration (inhibition ratio), EcoLRS [5]: 104%@50 μM |
